# Results: patent US7491796B1, “Retro-inversion peptides that target GIT receptors and related methods” (Merrion Research III Limited, priority 1998, dated 2009)
# Where no end group is shown, it is not given here. The star is where a group is joined. Dansyl = CN(C)c1cccc2c(S(=O)(=O)*)cccc12
# Test system: Caco-2 cell membrane (P100) fractions
# Assay: Binding of dansylated peptides to Caco-2 cell membrane (P100) fractions by ELISA
# Conditions: for Kd: Caco-2 P100 fractions, ELISA, read-out: KD (concentration of the peptide required to reach half maximal binding to Caco-2 P100 fractions); for Binding to P100 relative to ZElan021 (arbitrary value 1.00), P100 assay number 4: assay 4; for Binding to P100 relative to ZElan021 (arbitrary value 1.00), P100 assay number 4 / Binding to P100 relative to ZElan021 (arbitrary value 1.00), P100 assay number 5 / Binding to P100 relative to ZElan021 (arbitrary value 1.00), P100 assay number 6 / Binding to P100 relative to ZElan021 (arbitrary value 1.00), P100 assay number 7 / Binding to P100 relative to ZElan021 (arbitrary value 1.00), P100 assay number 8: peptide at 25 μg/ml; for Binding to P100 relative to ZElan021 (arbitrary value 1.00), P100 assay number 5: assay 5; for Binding to P100 relative to ZElan021 (arbitrary value 1.00), P100 assay number 6: assay 6; for Binding to P100 relative to ZElan021 (arbitrary value 1.00), P100 assay number 7: assay 7; for Binding to P100 relative to ZElan021 (arbitrary value 1.00), P100 assay number 8: assay 8
# Method: Similar to the methods described in the above-referenced WO 98/51325, Caco-2 cell membrane (P100) and cytosolic (S100) fractions were prepared using a modification of the method described in Kinsella, B. T., O'Mahony, D. J. and G. A. FitzGerald, 1994, J. Biol. Chem. 269(47): 29914-29919. Confluent Caco-2 cell monolayers (grown in 75 cm^2 flasks for up to 1 week at 37° C. and 5% CO2) were washed twice in Dulbecco's PBS (DPBS) and the cells were harvested by centrifugation at 1000 rpm after treatment with 10 mM EDTA-DPBS. The cells were washed 3 times in DPBS and the final cell pellet was resuspended in 3 volumes of ice cold HED buffer (20 mM HEPES (pH 7.67), 1 mM EGTA, 0.5 mM dithiothreitol, 1 mM phenylmethylsulphonyl fluoride (PMSF)). The cells were allowed to swell for 5 min on ice prior to homogenization for 30 sec. The homogenates were centrifuged at 40,000 rpm for 45 min at 4° C. The supernatant (S100) was removed and the pellet (P100) was resuspended in HEDG buffer (20 mM HEPES (pH 7.67), 1 mM EGTA, 0.5 mM dithiothreitol, 100 mM NaCl, 10% glycerol, 1 mM PMSF). Protein concentrations were determined using the Bradford assay (Bradford, M. M., 1976, Anal. Biochem. 72: 248-254).
# Binding of peptides to membrane (P100) was assessed by detection of the dansyl moiety incorporated in the peptide. Costar ninety six well ELISA plates were coated with P100 fractions (100 μg/ml in 0.05 M NaHCO3 (pH 9.6); 100 μl/well) overnight at 4° C. The plates were blocked with 2% Marvel-DPBS for 1 h at room temperature and washed 3 times in 1% DPBS-Tween. Peptides (200 μg/ml in 2% Marvel-DPBS) were serially diluted on the plates and incubated for 1 h at room temperature. The plates were washed 5 times and the dansylated peptides were detected using i) mouse anti-dansyl antiserum (Cytogen DB3-226.3; 1:1340 dilution in 2% Marvel-DPBS) or ii) rabbit anti-dansyl antiserum (La Jolla Diagnostics LAJD-119; 1:1000 dilutions) for 1 h at room temperature. The plates were washed 3 times prior to incubation with i) goat anti-mouse IgGλ:HRP antibody (Southern Biotechnology 1060-05; 1:10,000 dilution in 2% Marvel-DPBS) or ii) anti-rabbit IgG HRP (Sigma A-0545, 1:8,000) for 1 h at room temperature. After 3 washes, reactions were visualized using K Blue Substrate and Red Stop Solution (Neogen Co. 300176 & 301475, respectively) at 650 nm.
# ZElan021, full length HAX42 [K(dns)-[…]] (SEQ ID NO:53; dansylated version is SEQ ID NO:8) was given the arbitrary value of 1.00 for binding to P100 at a given peptide concentration determined from the signal-to-noise ratio data. […] Assay number 1 was at 20 μg/ml; 2 and 3 were at 50 μg/ml; and 4 through 8 were at 25 μg/ml.
# KD values, or the concentration of the peptide required to reach half maximal binding to Caco-2 P100 fractions, are given in Table 3 for ZElan021, full length HAX42, [K(dns)-[…]] (SEQ ID NO:53; dansylated version is SEQ ID NO:8), HAX42 fragment ZElan091, and the retro-inverted form of this fragment, ZElan146 as well as for ZElan018, full length PAX2, [K(dns)-STPPSREAYSRPYSVDS […]] (SEQ ID NO:7; dansylated version is SEQ ID NO:15), PAX2 fragment ZElan129, and the retro-inverted form of this fragment, ZELan144.
Substance,Kd [µM],"Binding to P100 relative to ZElan021 (arbitrary value 1.00), P100 assay number 1 (assay 1, peptide at 20 μg/ml)","Binding to P100 relative to ZElan021 (arbitrary value 1.00), P100 assay number 2 (assay 2, peptide at 50 μg/ml)","Binding to P100 relative to ZElan021 (arbitrary value 1.00), P100 assay number 3 (assay 3, peptide at 50 μg/ml)","Binding to P100 relative to ZElan021 (arbitrary value 1.00), P100 assay number 4","Binding to P100 relative to ZElan021 (arbitrary value 1.00), P100 assay number 5","Binding to P100 relative to ZElan021 (arbitrary value 1.00), P100 assay number 6","Binding to P100 relative to ZElan021 (arbitrary value 1.00), P100 assay number 7","Binding to P100 relative to ZElan021 (arbitrary value 1.00), P100 assay number 8"
"K(dns)-TNAKHSSHNRRLRTR (K(Dansyl)TNAKHSSHNRRLRTR) [ZElan129, dansylated PAX2 15 mer fragment]",29.6,,,,,,,,
"K(dns)-SDHALGTNLRSDNAKEPGDYNCCGNGNSTGRKVFNRRRPSAIPT (K(Dansyl)SDHALGTNLRSDNAKEPGDYNCCGNGNSTGRKVFNRRRPSAIPT; cysteine pairing not given here) [ZElan021, dansylated full length HAX42]",6.7,1.00,1.00,1.00,1.00,1.00,1.00,1.14,0.94
K(dns)-PGDYNCCGNGNSTG [ZElan091],0.75,,,,2.02,1.37,1.20,0.85,
"K(dns)-STPPSREAYSRPYSVDS DSDTNAKHSSHNRRLRTRSRPNG (K(Dansyl)STPPSREAYSRPYSVDSDSDTNAKHSSHNRRLRTRSRPNG) [ZElan018, dansylated full length PAX2]",> 50,,,,,,,,
K(dns)-gtsngngccnydgp [ZElan146],21.7,,,,,,,0.36,0.72
K(dns)-rtrlrrnhsshkant [ZElan144],28.8,,,,,,,,
